Where a name gives a salt, the structure may show the parent alone.

In this experiment the target is T1, human NHE3 (Homo sapiens, UniProt P48764).
T1 sequence (P48764 26-834): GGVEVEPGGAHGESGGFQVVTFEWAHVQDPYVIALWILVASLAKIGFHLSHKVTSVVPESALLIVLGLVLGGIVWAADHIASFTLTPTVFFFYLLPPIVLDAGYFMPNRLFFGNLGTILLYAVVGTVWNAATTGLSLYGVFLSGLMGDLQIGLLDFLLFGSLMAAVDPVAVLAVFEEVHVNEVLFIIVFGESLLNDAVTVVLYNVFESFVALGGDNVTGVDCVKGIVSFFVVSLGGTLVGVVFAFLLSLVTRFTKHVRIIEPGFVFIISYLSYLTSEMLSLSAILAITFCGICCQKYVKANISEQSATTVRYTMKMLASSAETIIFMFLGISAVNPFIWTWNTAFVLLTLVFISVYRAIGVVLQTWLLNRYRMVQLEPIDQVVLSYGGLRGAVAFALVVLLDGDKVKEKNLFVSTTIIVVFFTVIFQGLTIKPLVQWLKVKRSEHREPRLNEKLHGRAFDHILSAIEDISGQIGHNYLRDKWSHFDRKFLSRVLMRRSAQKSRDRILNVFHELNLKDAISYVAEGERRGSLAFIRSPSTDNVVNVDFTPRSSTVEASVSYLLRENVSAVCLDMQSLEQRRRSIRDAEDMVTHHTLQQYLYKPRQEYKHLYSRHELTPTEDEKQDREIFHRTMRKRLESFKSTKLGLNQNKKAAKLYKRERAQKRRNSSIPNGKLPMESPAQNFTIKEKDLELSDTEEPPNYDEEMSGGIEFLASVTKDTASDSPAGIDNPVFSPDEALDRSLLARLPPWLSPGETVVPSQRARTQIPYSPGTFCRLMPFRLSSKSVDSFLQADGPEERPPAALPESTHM
Nature of the experiment: NHE3 inhibition test (recovery of intracellular pH in cell line stably expressing human NHE3). In kind it is cell-based. Conditions: OK cells deficient in endogenous NHE stably expressing human NHE3; BCECF fluorescence, initial rate of pH recovery; read-out: human NHE3 inhibitory activity IC50. As to the method:
(1) Preparation of Cell Line Deficient in Endogenous NHE
The cell line deficient in endogenous NHE was prepared according to the method of Jacques Pouyssegur et al. (Proc. Natl. Acad. Sci. USA. 1984, Vol. 81, 4833-4837) using opossum kidney (OK) cells (ATCC).
(2) Preparation of Expression Plasmid and Cell Line Stably Expressing Human NHE3
The expression plasmid was constructed by inserting a human NHE3 (SLC9A3, Accession No. NM_004174) cDNA sequence (GeneCopoeia, Inc.) into a pcDNA3.2/V5-DEST vector (Life Technologies Corp.).
The OK cells deficient in endogenous NHE were transfected with the constructed human NHE3 expression plasmid to prepare stably expressing cells. The transfection was carried out by electroporation using a Nucleofector 2b device (Lonza Group Ltd.). A stably expressing cell line was selected in medium supplemented with 500 μg/mL Geneticin (Life Technologies Corp.) and isolated.
NHE3 activity measurement method using cell: The activity was determined by using the NHE3-mediated recovery of intracellular pH occurring after intracellular acidification, as an index. The intracellular pH was measured by a partial modification of the pH-sensitive fluorescent indicator method reported by Tsien et al. (Proc. Natl. Acad. Sci. USA., 1984, 81, 7436-7440).
The cell line stably expressing human NHE3 was inoculated on a poly-D-lysine-coated 96-well plate (Greiner Bio-one) and cultured overnight. […] Then, Hank's balanced salt buffer solution containing 0.25 μM BCECF-AM (Dojindo Laboratories) was added to the cells, which were then incubated at 37° C. for 30 minutes. […] The cells thus incubated in the NH4Cl buffer solution were washed with NH4Cl-free buffer solution (133.8 mM choline chloride, […], 5 mM glucose, 4.7 mM KCl, 1.25 mM CaCl2, 1.25 mM MgCl2, 0.97 mM K2HPO4, 0.23 mM KH2PO4, pH 7.4) to decrease the intracellular pH. After the washing step, 70 μL of a test compound solution prepared with the NH4Cl-free buffer solution was added to the cells, and 70 iμL of sodium ion-containing buffer solution (133.8 mM NaCl, 10 mM HEPES, 5 mM glucose, 4.7 mM KCl, 1.25 mM CaCl2, 1.25 mM MgCl2, 0.97 mM Na2HPO4, 0.23 mM NaH2PO4, pH 7.4) was added thereto in a measurement system FDSS6000 (Hamamatsu Photonics K.K.) to start the recovery of pH. The recovery of intracellular pH was monitored using BCECF fluorescence (excitation wavelength: 480 nm, fluorescence wavelength: 520 to 560 nm), and the initial rate of the pH recovery was plotted. The recovery of pH without test compound was defined as the maximum recovery, and the test compound concentration necessary to inhibit 50% of the maximum recovery was calculated as an IC50 value.

`CN1Cc2c(Cl)cc(Cl)cc2[C@H](c2cccc(-c3ncccn3)c2)C1` [Example 1-16, (4S)-6,8-Dichloro-2-methyl-4-[3-(pyrimidin-2-yl)phenyl]-1,2,3,4-tetrahydroisoquinoline trifluoroacetate]: the IC50 worked out at 184 nM.

For the compound `CN1Cc2c(Cl)cc(Cl)cc2[C@H](c2cccc(-c3cnc(NCCOCCOCCOCCNC(=O)[C@H](O)[C@@H](O)C(=O)NCCOCCOCCOCCNc4ncc(-c5cccc([C@@H]6CN(C)Cc7c(Cl)cc(Cl)cc76)c5)cn4)nc3)c2)C1` [Example 8-21, (2R,3R)-N,N′-Bis{2-[2-(2-{2-[(5-{3-[(4S)-6,8-dichloro-2-methyl-1,2,3,4-tetrahydroisoquinolin-4-yl]phenyl}pyrimidin-2-yl)amino]ethoxy}ethoxy)ethoxy]ethyl}-2,3-dihydroxybutanediamide formate], the IC50 is 3.2 nM. `CN1Cc2c(Cl)cc(Cl)cc2[C@H](c2cccc(-c3cn(CCOCCOCCOCCNC(=O)CN(CCN(CC(=O)NCCOCCOCCOCCn4cc(-c5cccc([C@@H]6CN(C)Cc7c(Cl)cc(Cl)cc76)c5)nn4)CC(=O)NCCOCCOCCOCCn4cc(-c5cccc([C@@H]6CN(C)Cc7c(Cl)cc(Cl)cc76)c5)nn4)CC(=O)NCCOCCOCCOCCn4cc(-c5cccc([C@@H]6CN(C)Cc7c(Cl)cc(Cl)cc76)c5)nn4)nn3)c2)C1` [Example 9-1, hydrochloride]: the IC50 turned out to be 13.1 nM. Under `CN1Cc2c(Cl)cc(Cl)cc2[C@H](c2cccc(-c3cncnc3)c2)C1` [Example 1-10, (4S)-6,8-Dichloro-2-methyl-4-[3-(pyrimidin-5-yl)phenyl]-1,2,3,4-tetrahydroisoquinoline trifluoroacetate] stands 169 nM.

Turning to `CN1Cc2c(Cl)cc(Cl)cc2[C@H](c2cccc(-c3ccc(NCCOCCOCCNC(=O)Nc4ccc(NC(=O)NCCOCCOCCNc5ccc(-c6cccc([C@@H]7CN(C)Cc8c(Cl)cc(Cl)cc87)c6)cn5)cc4)nc3)c2)C1` [Example 7-8, 1,1′-Benzene-1,4-diylbis{3-[2-(2-{2-[(5-{3-[(4S)-6,8-dichloro-2-methyl-1,2,3,4-tetrahydroisoquinolin-4-yl]phenyl}pyridin-2-yl)amino]ethoxy}ethoxy)ethyl]urea}], the IC50 amounted to 1080 nM.

For the compound `CN1Cc2c(Cl)cc(Cl)cc2[C@H](c2cccc(-c3cc(NCCOCCOCCOCCNC(=O)[C@@H](O)[C@H](O)[C@H](O)[C@@H](O)C(=O)NCCOCCOCCOCCNc4cc(-c5cccc([C@@H]6CN(C)Cc7c(Cl)cc(Cl)cc76)c5)ncn4)ncn3)c2)C1` [Example 8-26, (2R,3S,4R,5S)-N,N′-Bis{2-[2-(2-{2-[(6-{3-[(4S)-6,8-dichloro-2-methyl-1,2,3,4-tetrahydroisoquinolin-4-yl]phenyl}pyrimidin-4-yl)amino]ethoxy}ethoxy)ethoxy]ethyl}-2,3,4,5-tetrahydroxyhexanediamide hydrochloride], the 50% inhibitory concentration (IC50) was determined as 2.2 nM. In the case of `CN1Cc2c(Cl)cc(Cl)cc2[C@H](c2cccc(-c3cn(C)cn3)c2)C1` [Example 1-18, (4S)-6,8-Dichloro-2-methyl-4-[3-(1-methyl-1H-imidazol-4-yl)phenyl]-1,2,3,4-tetrahydroisoquinoline], the IC50 was 95.7 nM. Under `CN1Cc2c(Cl)cc(Cl)cc2[C@H](c2cccc(-c3cn(CCOCCOCCOCCOCCNC(=O)NCCCCNC(=O)NCCOCCOCCOCCOCCn4cc(-c5cccc([C@@H]6CN(C)Cc7c(Cl)cc(Cl)cc76)c5)nn4)nn3)c2)C1` [Example 7-1, 1,1′-Butane-1,4-diylbis {3-[14-(4-{3-[(4S)-6,8-dichloro-2-methyl-1,2,3,4-tetrahydroisoquinolin-4-yl]phenyl}-1H-1,2,3-triazol-1-yl)-3,6,9,12-tetraoxatetradec-1-yl]urea}hydrochloride] stands 2.2 nM; under `CN1Cc2c(Cl)cc(Cl)cc2[C@H](c2cccc(-c3cn(CCOCCOCCNC(=O)[C@@H](O)[C@H](O)[C@H](O)[C@@H](O)C(=O)NCCOCCOCCn4cc(-c5cccc([C@@H]6CN(C)Cc7c(Cl)cc(Cl)cc76)c5)nn4)nn3)c2)C1` [Example 6-7, (2R,3S,4R,5S)—N,N′-Bis(2-{2-[2-(4-{3-[(4S)-6,8-dichloro-2-methyl-1,2,3,4-tetrahydroisoquinolin-4-yl]phenyl}-1H-1,2,3-triazol-1-yl)ethoxy]ethoxy}ethyl)-2,3,4,5-tetrahydroxyhexanediamide hydrochloride], 1.1 nM. For `CN1Cc2c(Cl)cc(Cl)cc2[C@H](c2cccc(-c3nnn(CCOCCOCCOCCNC(=O)[C@@H](O)[C@H](O)[C@H](O)[C@@H](O)C(=O)NCCOCCOCCOCCn4nnc(-c5cccc([C@@H]6CN(C)Cc7c(Cl)cc(Cl)cc76)c5)n4)n3)c2)C1` [Example 8-25, (2R,3S,4R,5S)-N,N′-Bis[2-(2-{2-[2-(5-{3-[(4S)-6,8-dichloro-2-methyl-1,2,3,4-tetrahydroisoquinolin-4-yl]phenyl}-2H-tetrazol-2-yl)ethoxy]ethoxy}ethoxy)ethyl]-2,3,4,5-tetrahydroxyhexanediamide hydrochloride] the value was 0.2 nM.

As for `CN1Cc2c(Cl)cc(Cl)cc2[C@H](c2cccc(-c3cc(OCCOCCOCCOCCNC(=O)Nc4ccc(NC(=O)NCCOCCOCCOCCOc5cc(-c6cccc([C@@H]7CN(C)Cc8c(Cl)cc(Cl)cc87)c6)ncn5)cc4)ncn3)c2)C1` [Example 7-25, 1,1′-Benzene-1,4-diylbis(3-{2-[2-(2-{2-[(6-{3-[(4S)-6,8-dichloro-2-methyl-1,2,3,4-tetrahydroisoquinolin-4-yl]phenyl}pyrimidin-4-yl)oxy]ethoxy}ethoxy)ethoxy]ethyl}urea) hydrochloride], the IC50 came out at 13.6 nM. Under `CN1Cc2c(Cl)cc(Cl)cc2[C@H](c2cccc(-c3cn(CCOCCOCCOCCNC(=O)NCCOCCNC(=O)NCCOCCOCCOCCn4cc(-c5cccc([C@@H]6CN(C)Cc7c(Cl)cc(Cl)cc76)c5)nn4)nn3)c2)C1` [Example 7-37, 1,1′-(Oxydiethane-2,1-diyl)bis{3-[2-(2-{2-[2-(4-{3-[(4S)-6,8-dichloro-2-methyl-1,2,3,4-tetrahydroisoquinolin-4-yl]phenyl}-1H-1,2,3-triazol-1-yl)ethoxy]ethoxy}ethoxy)ethyl]urea}hydrochloride] stands 6.6 nM. Consider `CN1Cc2c(Cl)cc(Cl)cc2[C@H](c2cccc(-c3cn(CCOCCOCCOCCNC(=O)NCCCCCCCCNC(=O)NCCOCCOCCOCCn4cc(-c5cccc([C@@H]6CN(C)Cc7c(Cl)cc(Cl)cc76)c5)nn4)nn3)c2)C1` [Example 7-28, 1,1′-Octane-1,8-diylbis {3-[2-(2-{2-[2-(4-{3-[(4S)-6,8-dichloro-2-methyl-1,2,3,4-tetrahydroisoquinolin-4-yl]phenyl}-1H-1,2,3-triazol-1-yl)ethoxy]ethoxy}ethoxy)ethyl]urea}hydrochloride], for which the half-maximal inhibitory concentration (IC50) was 7.3 nM.

The values above are taken from patent US9932331B2, “Phenyl tetrahydroisoquinoline compound substituted with heteroaryl” (TAISHO PHARMACEUTICAL CO., LTD, priority 2014, dated 2018).
